Experimental data: the supplement of paper PMC8617591

Key:
[1] = system: Mycobacterium tuberculosis Erdman (autoluminescent); test: AUC25, normalised area under dose response up to IC25 (three-drug combination) (fraction (0-1)); higher = more potent at low dose
Method: (§1)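 DiaMOND equipotent three-drug combination dose responses (10 doses, 1.5- or 2-fold spacing, centred on IC90) against autoluminescent M. tuberculosis Erdman in 8 in vitro models. Read-out is OD600, or luminescence for the intracellular and dormancy models, normalised to untreated wells. Hill-fit Einf, AUC25 and GRinf are potency metrics; FIC50 and FIC90 are total Loewe fractional inhibitory concentrations as log2 (negative = synergy).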

[2] = system: Mycobacterium tuberculosis Erdman (autoluminescent); test: total FIC50 (Loewe) at 50% inhibition, three-drug combination (log2); higher = more antagonistic
Method: as §1

[3] = system: Mycobacterium tuberculosis Erdman (autoluminescent); test: total FIC90 (Loewe) at 90% inhibition, three-drug combination (log2); higher = more antagonistic
Method: as §1

[4] = system: Mycobacterium tuberculosis Erdman (autoluminescent); test: GRinf, maximum normalised growth rate inhibition (three-drug combination) (unitless (-1 to 1)); higher = less effect (negative = killing)
Method: as §1

[5] = system: Mycobacterium tuberculosis Erdman (autoluminescent); test: Einf, fitted maximum growth inhibition of three-drug combination (fraction); higher = stronger maximal inhibition
Method: as §1

COc1c(N2C[C@@H]3CCCN[C@@H]3C2)c(F)cc2c(=O)c(C(=O)O)cn(C3CC3)c12 [moxifloxacin] + NC(=O)c1cnccn1 [pyrazinamide] + CO[C@H]1/C=C/O[C@@]2(C)Oc3c(C)c(O)c4c(O)c(c(/C=N/N5CCN(C6CCCC6)CC5)c(O)c4c3C2=O)NC(=O)/C(C)=C\C=C\[C@H](C)[C@H](O)[C@@H](C)[C@@H](O)[C@@H](C)[C@H](OC(C)=O)[C@@H]1C [rifapentine]
Settings | AUC25, [1] | Einf, [5] | GRinf, [4] | total FIC50, [2] | total FIC90, [3]
in vitro model: acidic pH 5.7, time point: constant (~7 days, model-specific) | 0.0979 | 0.916 | -0.164 | 0.396 | –
in vitro model: acidic pH 5.7, time point: terminal (~4-5 doublings, model-specific) | 0.0717 | 0.996 | -0.192 | 0.991 | -0.209
in vitro model: intracellular J774, time point: constant = terminal | – | 0.968 | -0.65 | – | 0.713

Settings | AUC25, [1] | Einf, [5] | GRinf, [4] | total FIC50, [2] | total FIC90, [3]
in vitro model: butyrate, time point: constant (~7 days, model-specific) | 0.118 | 0.907 | 0.0713 | 0.589 | 0.846
in vitro model: butyrate, time point: terminal (~4-5 doublings, model-specific) | 0.0899 | 0.961 | 0.0339 | 0.781 | 1.19
in vitro model: cholesterol 0.05 mM, time point: constant (~7 days, model-specific) | 0.116 | 0.617 | -0.407 | – | –
in vitro model: cholesterol 0.05 mM, time point: terminal (~4-5 doublings, model-specific) | 0.0984 | 0.913 | -0.171 | 1.31 | –
in vitro model: cholesterol-high 0.2 mM, time point: constant (~7 days, model-specific) | 0.0917 | 0.947 | -0.459 | 0.921 | –
in vitro model: cholesterol-high 0.2 mM, time point: terminal (~4-5 doublings, model-specific) | 0.0805 | 1 | -0.837 | 1.23 | 1.05
in vitro model: dormancy (butyrate + nitrate, low O2), time point: constant (~7 days, model-specific) | 0.0716 | 0.862 | 0.214 | 0.262 | 0.265
in vitro model: dormancy (butyrate + nitrate, low O2), time point: terminal (~4-5 doublings, model-specific) | 0.07 | 0.979 | -0.13 | 0.473 | 1.04
in vitro model: standard 7H9 glycerol, time point: constant = terminal | 0.0577 | 0.882 | 0.0649 | – | –
in vitro model: valerate, time point: constant (~7 days, model-specific) | 0.0789 | 0.81 | 0.162 | 0.849 | –
in vitro model: valerate, time point: terminal (~4-5 doublings, model-specific) | 0.0473 | 0.929 | 0.0611 | 0.778 | 0.693

COc1c(N2C[C@@H]3CCCN[C@@H]3C2)c(F)cc2c(=O)c(C(=O)O)cn(C3CC3)c12 [moxifloxacin] + NC(=O)c1cnccn1 [pyrazinamide] + CO[C@H]1/C=C/O[C@@]2(C)Oc3c(C)c(O)c4c(O)c(c(/C=N/N5CCN(C)CC5)c(O)c4c3C2=O)NC(=O)/C(C)=C\C=C\[C@H](C)[C@H](O)[C@@H](C)[C@@H](O)[C@@H](C)[C@H](OC(C)=O)[C@@H]1C [rifampicin]
Settings | AUC25, [1] | Einf, [5] | GRinf, [4] | total FIC50, [2] | total FIC90, [3]
in vitro model: acidic pH 5.7, time point: constant (~7 days, model-specific) | 0.0731 | 0.851 | -0.155 | 0.177 | –
in vitro model: acidic pH 5.7, time point: terminal (~4-5 doublings, model-specific) | 0.0678 | 0.99 | -0.208 | 0.423 | -0.913
in vitro model: intracellular J774, time point: constant = terminal | – | 0.99 | -0.539 | – | 0.76

Settings | AUC25, [1] | Einf, [5] | GRinf, [4] | total FIC50, [2] | total FIC90, [3]
in vitro model: butyrate, time point: constant (~7 days, model-specific) | 0.119 | 0.869 | 0.125 | 0.49 | 2.29
in vitro model: butyrate, time point: terminal (~4-5 doublings, model-specific) | 0.114 | 0.977 | -0.00285 | 0.525 | 1.3
in vitro model: cholesterol 0.05 mM, time point: constant (~7 days, model-specific) | 0.096 | 0.6 | 0.1 | – | –
in vitro model: cholesterol 0.05 mM, time point: terminal (~4-5 doublings, model-specific) | 0.0868 | 0.868 | -0.00841 | 1.23 | –
in vitro model: cholesterol-high 0.2 mM, time point: constant (~7 days, model-specific) | 0.0908 | 0.912 | -0.393 | 1.26 | –
in vitro model: cholesterol-high 0.2 mM, time point: terminal (~4-5 doublings, model-specific) | 0.0879 | 1 | -0.949 | 1.58 | 1.47
in vitro model: dormancy (butyrate + nitrate, low O2), time point: constant (~7 days, model-specific) | 0.0806 | 0.87 | 0.204 | 0.465 | -0.0278
in vitro model: dormancy (butyrate + nitrate, low O2), time point: terminal (~4-5 doublings, model-specific) | 0.0656 | 0.978 | -0.115 | 0.411 | 0.407
in vitro model: standard 7H9 glycerol, time point: constant = terminal | 0.0452 | 0.781 | 0.36 | – | –
in vitro model: valerate, time point: constant (~7 days, model-specific) | 0.0626 | 0.785 | 0.176 | 0.864 | –
in vitro model: valerate, time point: terminal (~4-5 doublings, model-specific) | 0.0319 | 0.909 | 0.127 | 0.853 | 0.657

COc1c(N2C[C@@H]3CCCN[C@@H]3C2)c(F)cc2c(=O)c(C(=O)O)cn(C3CC3)c12 [moxifloxacin] + O=[N+]([O-])c1cn2c(n1)OC[C@@H](OCc1ccc(OC(F)(F)F)cc1)C2 [pretomanid] + CO[C@H]1/C=C/O[C@@]2(C)Oc3c(C)c(O)c4c(O)c(c(/C=N/N5CCN(C6CCCC6)CC5)c(O)c4c3C2=O)NC(=O)/C(C)=C\C=C\[C@H](C)[C@H](O)[C@@H](C)[C@@H](O)[C@@H](C)[C@H](OC(C)=O)[C@@H]1C [rifapentine]
Settings | AUC25, [1] | Einf, [5] | GRinf, [4] | total FIC50, [2] | total FIC90, [3]
in vitro model: acidic pH 5.7, time point: constant (~7 days, model-specific) | 0.0693 | 0.874 | -0.139 | 0.708 | –
in vitro model: acidic pH 5.7, time point: terminal (~4-5 doublings, model-specific) | 0.0354 | 0.971 | -0.106 | 0.952 | 0.554
in vitro model: intracellular J774, time point: constant = terminal | – | 0.964 | -0.179 | – | 0.252

Settings | AUC25, [1] | Einf, [5] | GRinf, [4] | total FIC50, [2] | total FIC90, [3]
in vitro model: butyrate, time point: constant (~7 days, model-specific) | 0.099 | 0.918 | -0.00663 | 0.501 | 0.722
in vitro model: butyrate, time point: terminal (~4-5 doublings, model-specific) | 0.0765 | 0.963 | -0.00653 | 0.582 | 0.784
in vitro model: cholesterol 0.05 mM, time point: constant (~7 days, model-specific) | 0.111 | 0.713 | -0.172 | 0.593 | –
in vitro model: cholesterol 0.05 mM, time point: terminal (~4-5 doublings, model-specific) | 0.0851 | 0.89 | -0.186 | 1.01 | 1.21
in vitro model: cholesterol-high 0.2 mM, time point: constant (~7 days, model-specific) | 0.0549 | 0.877 | -0.142 | 0.887 | 0.511
in vitro model: cholesterol-high 0.2 mM, time point: terminal (~4-5 doublings, model-specific) | 0.04 | 0.988 | -0.672 | 1.15 | 0.705
in vitro model: dormancy (butyrate + nitrate, low O2), time point: constant (~7 days, model-specific) | 0.0589 | 0.89 | 0.213 | 0.874 | 0.639
in vitro model: dormancy (butyrate + nitrate, low O2), time point: terminal (~4-5 doublings, model-specific) | 0.0483 | 0.98 | -0.128 | 1.17 | 1.14
in vitro model: standard 7H9 glycerol, time point: constant = terminal | 0.0568 | 0.928 | -0.0296 | 0.55 | 0.207
in vitro model: valerate, time point: constant (~7 days, model-specific) | 0.116 | 0.89 | 0.0703 | 0.213 | –
in vitro model: valerate, time point: terminal (~4-5 doublings, model-specific) | 0.0723 | 0.941 | 0.0683 | 0.631 | 0.879
